Assay results published in patent US9957261B2 (Hoffmann-La Roche Inc., priority 2014, dated 2018).

Legend:
[1] = target: mouse TAAR1 (Mus musculus (Mouse), UniProt Q923Y8); assay: Radioligand binding assay on mouse TAAR1; conditions: mouse TAAR1, membranes of stably transfected HEK-293 cells; first value of mouse/rat pair
Protocol: (§1) Construction of TAAR Expression Plasmids and Stably Transfected Cell Lines
(§2) For the construction of expression plasmids the coding sequences of human, rat and mouse TAAR 1 were amplified from genomic DNA essentially as described by Lindemann et al.. The Expand High Fidelity PCR System (Roche Diagnostics) was used with 1.5 mM Mg^2+ and purified PCR products were cloned into pCR2.1-TOPO cloning vector (Invitrogen) following the instructions of the manufacturer. PCR products were subcloned into the pIRESneo2 vector (BD Clontech, Palo Alto, Calif.), and expression vectors were sequence verified before introduction in cell lines.
(§3) HEK293 cells (ATCC # CRL-1573) were cultured essentially as described by Lindemann et al. (2005). For the generation of stably transfected cell lines HEK293 cells were transfected with the pIRESneo2 expression plasmids containing the TAAR coding sequences (described above) with Lipofectamine 2000 (Invitrogen) according to the instructions of the manufacturer, and 24 hrs post transfection the culture medium was supplemented with 1 mg/ml G418 (Sigma, Buchs, Switzerland). After a culture period of about 10 d clones were isolated, expanded and tested for responsiveness to trace amines (all compounds purchased from Sigma) with the cAMP Biotrak Enzyme immunoassay (EIA) System (Amersham) following the non-acetylation EIA procedure provided by the manufacturer.
Radioligand Binding Assay on Mouse TAAR1
(§4) Membrane Preparation and Radioligand Binding.
(§5) HEK-293 cells stably expressing mouse TAAR1 were maintained at 37° C. and 5% CO2 in DMEM high glucose medium, containing fetal calf serum (10%, heat inactivated for 30 min at 56° C.), penicillin/streptomycin (1%), and 375 μg/ml geneticin (Gibco). Cells were released from culture flasks using trypsin/EDTA, harvested, washed twice with ice-cold PBS (without Ca^2+ and Mg^2+), pelleted at 1′000 rpm for 5 min at 4° C., frozen and stored at −80° C. Frozen pellets were suspended in 20 ml HEPES-NaOH (20 mM, pH 7.4) containing 10 mM EDTA and homogenized with a Polytron (PT 6000, Kinematica) at 14,000 rpm for 20 s. The homogenate was centrifuged at 48,000×g for 30 min at 4° C. Subsequently, the supernatant was removed and discarded, and the pellet resuspended in 20 ml HEPES-NaOH (20 mM, pH 7.4) containing 0.1 mM EDTA using the Polytron (20 s at 14,000 rpm). This procedure was repeated and the final pellet resuspended in HEPES-NaOH containing 0.1 mM EDTA and homogenized using the Polytron. Typically, aliquots of 2 ml membrane portions were stored at −80° C. With each new membrane batch the dissociation constant (Kd) was determined via a saturation curve. […] Nonspecific binding was defined as the amount of ^3[H]—(S)-4-[(ethyl-phenyl-amino)-methyl]-4,5-dihydro-oxazol-2-ylamine bound in the presence of 10 μM unlabeled ligand. All compounds were tested at a broad range of concentrations (10 pM to 10 μM) in duplicates. […] The 96 deep well plates were incubated for 1 hr at 4° C. Incubations were terminated by rapid filtration through Unifilter-96 plates (Packard Instrument Company) and glass filters GF/C (Perkin Elmer) presoaked for 1 hr in polyethylenimine (0.3%) and washed 3 times with 1 ml of cold binding buffer. After addition of 45 μl of Microscint 40 (PerkinElmer) the Unifilter-96 plate was sealed and after 1 hr the radioactivity counted using a TopCount Microplate Scintillation Counter (Packard Instrument Company).

[2] = target: rat TAAR1 (Rattus norvegicus (Rat), UniProt Q923Y9); assay: Radioligand binding assay on rat TAAR1; conditions: rat TAAR1, membranes of stably transfected HEK-293 cells; second value of mouse/rat pair
rat TAAR1, sequence (Q923Y9 whole entry): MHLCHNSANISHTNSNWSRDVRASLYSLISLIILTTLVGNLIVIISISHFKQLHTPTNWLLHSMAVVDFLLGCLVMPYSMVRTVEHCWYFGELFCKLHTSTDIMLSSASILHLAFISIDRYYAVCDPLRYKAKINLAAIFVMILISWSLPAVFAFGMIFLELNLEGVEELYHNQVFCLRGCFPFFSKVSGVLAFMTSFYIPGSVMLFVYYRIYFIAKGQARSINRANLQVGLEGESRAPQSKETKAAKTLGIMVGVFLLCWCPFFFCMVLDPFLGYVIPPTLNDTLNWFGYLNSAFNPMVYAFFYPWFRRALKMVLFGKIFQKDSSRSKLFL
Protocol: as §1, §2, §3
Radioligand Binding Assay on Rat TAAR1
as §4
as §5, with “rat” for “mouse”, “[H]—(S)-4-[(ethyl-phenyl-amino)-methyl]-4,5-dihydro-oxazol-2-ylamine” for “^3[H]—(S)-4-[(ethyl-phenyl-amino)-methyl]-4,5-dihydro-oxazol-2-ylamine”

mouse TAAR1, sequence (Q923Y8 whole entry): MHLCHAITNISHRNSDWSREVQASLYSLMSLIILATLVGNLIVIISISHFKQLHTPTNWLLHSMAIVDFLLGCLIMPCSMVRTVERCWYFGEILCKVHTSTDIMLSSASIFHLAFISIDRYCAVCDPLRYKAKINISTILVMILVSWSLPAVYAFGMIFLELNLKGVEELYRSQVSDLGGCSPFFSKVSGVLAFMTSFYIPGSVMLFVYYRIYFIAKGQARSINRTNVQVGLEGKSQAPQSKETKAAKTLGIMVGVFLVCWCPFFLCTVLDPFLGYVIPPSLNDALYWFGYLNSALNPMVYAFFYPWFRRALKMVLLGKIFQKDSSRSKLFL

Structure (SMILES) | Ki [1] [µM] | Ki [2] [µM]
N[C@H]1CCc2cc(NC(=O)Nc3ccc(C(F)(F)F)cc3)ccc2C1 [Example 24, (S)-1-(6-Amino-5,6,7,8-tetrahydronaphthalen-2-yl)-3-(4-(trifluoromethyl)phenyl)urea] | 0.0011 | 0.0003
N[C@H]1CCc2cc(NC(=O)c3[nH]nc(-c4ccc(Cl)o4)c3Cl)ccc2C1 [Example 25, (S)—N-(6-Amino-5,6,7,8-tetrahydronaphthalen-2-yl)-4-chloro-3-(5-chlorofuran-2-yl)-1H-pyrazole-5-carboxamide] | 0.0007 | 0.0003
Cc1cc(C(=O)Nc2ccc3c(c2)CC[C@H](N)C3)nc(C(F)(F)F)n1 [Example 7, (S)—N-(6-Amino-5,6,7,8-tetrahydronaphthalen-2-yl)-6-methyl-2-(trifluoromethyl)-pyrimidine-4-carboxamide] | 0.0318 | 0.0198
N[C@H]1CCc2cc(NC(=O)c3ccc(F)c(F)c3)ccc2C1 [Example 42, (S)—N-(6-Amino-5,6,7,8-tetrahydronaphthalen-2-yl)-3,4-difluorobenzamide] | 0.0035 | 0.0019
N[C@H]1CCc2cc(Nc3ccc(C4CC4)cc3)ccc2C1 [Example 73, (S)—N6-(4-Cyclopropylphenyl)-1,2,3,4-tetrahydronaphthalene-2,6-diamine] | 0.01 | 0.0081
Cc1cc(C(=O)Nc2ccc3c(c2)OCC(N)C3)nc(C(F)(F)F)n1 (centres unmarked) [Example 9, N-(3-Aminochroman-7-yl)-6-methyl-2-(trifluoromethyl)pyrimidine-4-carboxamide] | 0.0805 | 0.114
CCCc1cc(C(=O)Nc2ccc3c(c2)CC[C@H](N)C3)nn1CC(F)F [Example 5, (S)—N-(6-Amino-5,6,7,8-tetrahydronaphthalen-2-yl)-1-(2,2-difluoroethyl)-5-propyl-1H-pyrazole-3-carboxamide] | 0.0067 | 0.0021
CCCc1cc(C(=O)Nc2ccc3c(c2)CC[C@@H](N)C3)nn1CC(F)F [Example 4, (R)—N-(6-Amino-5,6,7,8-tetrahydronaphthalen-2-yl)-1-(2,2-difluoroethyl)-5-propyl-1H-pyrazole-3-carboxamide] | 0.0914 | 0.0055
N[C@H]1CCc2cc(NC(=O)c3ccc(OCC(F)(F)F)nc3)ccc2C1 [Example 22, (S)—N-(6-Amino-5,6,7,8-tetrahydronaphthalen-2-yl)-6-(2,2,2-trifluoroethoxy)nicotinamide] | 0.0033 | 0.0016
N[C@H]1CCc2cc(NC(=O)c3ccc(C(F)(F)F)nc3)ccc2C1 [Example 20, (S)—N-(6-Amino-5,6,7,8-tetrahydronaphthalen-2-yl)-6-(trifluoromethyl)nicotinamide] | 0.0265 | 0.0237
CCc1n[nH]c(C(=O)Nc2ccc3c(c2)CC[C@H](N)C3)c1C [Example 51, (S)—N-(6-Amino-5,6,7,8-tetrahydronaphthalen-2-yl)-3-ethyl-4-methyl-1H-pyrazole-5-carboxamide] | 0.0062 | 0.0046
Cc1cc(C(=O)Nc2ccc3c(c2)CC[C@H](N)C3)ccn1 [Example 17, (S)—N-(6-Amino-5,6,7,8-tetrahydronaphthalen-2-yl)-2-methylisonicotinamide] | 0.111 | 0.147
COc1cccc(Nc2ccc3c(c2)CC[C@H](N)C3)c1 [Example 94, (S)—N6-(3-Methoxyphenyl)-1,2,3,4-tetrahydronaphthalene-2,6-diamine] | 0.0541 | 0.0462
CC(=O)Nc1cc(C(=O)Nc2ccc3c(c2)CC[C@H](N)C3)ccn1 [Example 18, (S)-2-Acetamido-N-(6-amino-5,6,7,8-tetrahydronaphthalen-2-yl)isonicotinamide] | 0.71 | 0.232
CCc1ccc(NC(=O)c2ccc3c(c2)CCC(N)C3)cc1 (centres unmarked) [Example 56, 6-Amino-N-(4-ethylphenyl)-5,6,7,8-tetrahydronaphthalene-2-carboxamide] | 0.0155 | 0.0456

Second part, the compound after the results:

Ki [1] [µM] | Ki [2] [µM] | Structure (SMILES)
0.0006 | 0.001 | N[C@H]1CCc2cc(NC(=O)c3ccc4ccccc4c3)ccc2C1 [Example 43, (S)—N-(6-Amino-5,6,7,8-tetrahydronaphthalen-2-yl)-2-naphthamide]
0.0163 | 0.0196 | N[C@H]1COc2cc(Nc3ncc(C(F)(F)F)cn3)ccc2C1 [Example 80, (R)—N7-(5-(Trifluoromethyl)pyrimidin-2-yl)chroman-3,7-diamine]
0.042 | 0.0374 | N[C@H]1COc2cc(Nc3ncc(Cl)cn3)ccc2C1 [Example 93, (R)—N7-(5-Chloropyrimidin-2-yl)chroman-3,7-diamine]
0.001 | 0.0009 | N[C@H]1CCc2cc(NC(=O)Nc3ccc(C4CC4)cc3)ccc2C1 [Example 72, (S)-1-(6-Amino-5,6,7,8-tetrahydronaphthalen-2-yl)-3-(4-cyclopropylphenyl)urea]
0.0096 | 0.0213 | NC1CCc2cc(C(=O)Nc3ccc(C4CC4)cc3)ccc2C1 (centres unmarked) [Example 60, 6-Amino-N-(4-cyclopropylphenyl)-5,6,7,8-tetrahydronaphthalene-2-carboxamide]
0.173 | 0.511 | N[C@H]1COc2cc(NC(=O)c3nccc(Cl)n3)ccc2C1 [Example 82, (R)—N-(3-Aminochroman-7-yl)-4-chloropyrimidine-2-carboxamide]
0.0026 | 0.0044 | N#Cc1ccc(C(=O)Nc2ccc3c(c2)OC[C@H](N)C3)cc1F [Example 86, (R)—N-(3-Aminochroman-7-yl)-4-cyano-3-fluorobenzamide]
0.0035 | 0.0077 | N[C@H]1COc2cc(NC(=O)c3cc(Cl)nc(Cl)c3)ccc2C1 [Example 91, (R)—N-(3-Aminochroman-7-yl)-2,6-dichloroisonicotinamide]
0.0071 | 0.0049 | N[C@H]1CCc2cc(Nc3cccc(OC(F)(F)F)c3)ccc2C1 [Example 61, (S)—N6-(3-(Trifluoromethoxy)phenyl)-1,2,3,4-tetrahydronaphthalene-2,6-diamine]
0.003 | 0.0026 | CCc1ccc(NC(=O)Nc2ccc3c(c2)CC[C@H](N)C3)cc1 [Example 64, (S)-1-(6-Amino-5,6,7,8-tetrahydronaphthalen-2-yl)-3-(4-ethylphenyl)urea]
